Results as given in patent publication US9980943B2, “Methods of treating muscular dystrophy” (BOARD OF REGENTS OF THE NEVADA SYSTEM OF HIGHER EDUCATION, …, priority 2013, dated 2018).

Tests used:
Format in all cases: cell-based, mouse
[1] = system: α7 integrin (LacZ reporter in α7+/LacZ myotubes); experiment: Myotube α7 integrin FDG assay (Burkin assay in myotubes, 96-well); conditions: myotubes; for fold induction at 0.5 µM / fold induction at 1 µM / fold induction at 5 µM / fold induction at 10 µM / fold induction at 20 µM / fold induction at 40 µM: Mus musculus, Myotube, read-out: Burkin Assay in Myotubes (signal relative to DMSO)
[2] = system: α7 integrin (LacZ reporter in α7βgal+/− myoblasts); experiment: Myoblast α7+/LacZ integrin FDG assay (Burkin assay in myoblasts, 96-well); conditions: α7+/LacZ myoblasts, 96-well; for fold induction at 0.5 µM / fold induction at 1 µM / fold induction at 5 µM / fold induction at 10 µM / fold induction at 20 µM / fold induction at 40 µM: Mus musculus, Myoblast, 48 h, read-out: Burkin Assay in Myoblasts, value relative to DMSO
[3] = system: β-galactosidase in CMV-LacZ C2C12 myotubes; experiment: CMV-LacZ secondary screen in C2C12 myotubes (β-Gal stabilizing assay); conditions: for CMV-LACZ in Myotubes, signal relative to DMSO / fold induction at 5 µM / fold induction at 10 µM / fold induction at 20 µM / fold induction at 40 µM: C2C12 CMV-LacZ myotubes, fold relative to DMSO; for fold induction at 5 µM / fold induction at 10 µM / fold induction at 20 µM / fold induction at 40 µM: Mus musculus; for fold induction at 5 µM: C2C12, read-out: CMV-LACZ in Myotubes, signal relative to DMSO, 5 uM; for fold induction at 10 µM: C2C12, read-out: CMV-LACZ in Myotubes, signal relative to DMSO, 10 uM; for fold induction at 20 µM: C2C12, read-out: CMV-LACZ in Myotubes, signal relative to DMSO, 20 uM; for fold induction at 40 µM: C2C12, read-out: CMV-LACZ in Myotubes, signal relative to DMSO, 40 uM; for CMV-LACZ in Myotubes (β-galactosidase activity relative to DMSO): CMV-LacZ C2C12 myotubes, 96-well format
In short: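 β-Gal level was the read-out, measured in a clonal C2C12 line expressing LacZ from a CMV promoter. Dose-response curves used six concentrations, 0.5 μM up to 40 μM, with duplicate points.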

SMILES	Burkin Assay in Myotubes, α7 integrin LacZ reporter signal relative to DMSO ([1]; 0.5 uM)	Burkin Assay in Myotubes, α7 integrin LacZ reporter signal relative to DMSO ([1]; 1 uM)	Burkin Assay in Myotubes, α7 integrin LacZ reporter signal relative to DMSO ([1]; 5 uM)	Burkin Assay in Myotubes, α7 integrin LacZ reporter signal relative to DMSO ([1]; 10 uM)	Burkin Assay in Myotubes, α7 integrin LacZ reporter signal relative to DMSO ([1]; 20 uM)	Burkin Assay in Myotubes, α7 integrin LacZ reporter signal relative to DMSO ([1]; 40 uM)	Burkin Assay in Myoblasts, signal relative to DMSO ([2]; 0.5 uM)	Burkin Assay in Myoblasts, signal relative to DMSO ([2]; 1 uM)	Burkin Assay in Myoblasts, signal relative to DMSO ([2]; 5 uM)	Burkin Assay in Myoblasts, signal relative to DMSO ([2]; 10 uM)	Burkin Assay in Myoblasts, signal relative to DMSO ([2]; 20 uM)	Burkin Assay in Myoblasts, signal relative to DMSO ([2]; 40 uM)	CMV-LACZ in Myotubes, signal relative to DMSO ([3]; 5 uM)	CMV-LACZ in Myotubes, signal relative to DMSO ([3]; 10 uM)	CMV-LACZ in Myotubes, signal relative to DMSO ([3]; 20 uM)	CMV-LACZ in Myotubes, signal relative to DMSO ([3]; 40 uM)	other results
CCCCNC(=O)CSc1nnc(Cc2ccc(Cl)c(Cl)c2)c(=O)[nH]1 [MLS001177259-01]	0.948	1.053	0.9988	1.044	0.8187	0.9237	0.9606	0.9896	0.9735	0.9165	0.7694	0.7773	0.9462	0.7316	0.8543	1.1	–
Cc1c(C(=O)N2CCCCC2)c(S(=O)(=O)Nc2cccc(Br)c2)c(C)n1C [MLS001096269-01]	–	–	–	–	–	–	–	–	–	–	–	–	–	–	–	–	fold induction at 0.5 µM ([1]; 0.5 uM): 0.999; fold induction at 1 µM ([1]; 1 uM): 1.09; fold induction at 5 µM ([1]; 5 uM): 1.31; fold induction at 10 µM ([1]; 10 uM): 1.12; fold induction at 20 µM ([1]; 20 uM): 1.13; fold induction at 40 µM ([1]; 40 uM): 0.912; fold induction at 0.5 µM ([2]; 0.5 uM): 1.04; fold induction at 1 µM ([2]; 1 uM): 1.01; fold induction at 5 µM ([2]; 5 uM): 0.941; fold induction at 10 µM ([2]; 10 uM): 1.03; fold induction at 20 µM ([2]; 20 uM): 1.05; fold induction at 40 µM ([2]; 40 uM): 1.2; fold induction at 5 µM [3]: 1.09; fold induction at 10 µM [3]: 0.74; fold induction at 20 µM [3]: 0.986; fold induction at 40 µM [3]: 0.775
O=c1oc2c(-c3cccc(F)c3)cc(O)cc2s1 [MLS000680049-01]	0.8875	1.056	1.047	1.22	0.8731	0.4379	0.9998	1.103	0.9693	0.9727	0.7493	0.6354	1.127	1.106	1.4405	0.4315	–
S=c1[nH]nc(Cn2cnc3ccccc32)n1-c1ccccc1 [MLS000707281-01]	–	–	–	–	–	–	–	–	–	–	–	–	–	–	–	–	Burkin Assay in Myotubes (signal relative to DMSO) ([1]; 0.5 uM): 1.011; Burkin Assay in Myotubes (signal relative to DMSO) ([1]; 1 uM): 0.6537; Burkin Assay in Myotubes (signal relative to DMSO) ([1]; 5 uM): 1.059; Burkin Assay in Myotubes (signal relative to DMSO) ([1]; 10 uM): 0.7505; Burkin Assay in Myotubes (signal relative to DMSO) ([1]; 20 uM): 1.156; Burkin Assay in Myotubes (signal relative to DMSO) ([1]; 40 uM): 1.141; Burkin Assay in Myoblasts, value relative to DMSO ([2]; 0.5 uM): 0.9507; Burkin Assay in Myoblasts, value relative to DMSO ([2]; 1 uM): 0.9756; Burkin Assay in Myoblasts, value relative to DMSO ([2]; 5 uM): 0.8935; Burkin Assay in Myoblasts, value relative to DMSO ([2]; 10 uM): 0.8854; Burkin Assay in Myoblasts, value relative to DMSO ([2]; 20 uM): 0.8359; Burkin Assay in Myoblasts, value relative to DMSO ([2]; 40 uM): 0.7969; CMV-LACZ in Myotubes (β-galactosidase activity relative to DMSO) ([3]; 5 uM): 0.8706; CMV-LACZ in Myotubes (β-galactosidase activity relative to DMSO) ([3]; 10 uM): 0.9255; CMV-LACZ in Myotubes (β-galactosidase activity relative to DMSO) ([3]; 20 uM): 0.9474; CMV-LACZ in Myotubes (β-galactosidase activity relative to DMSO) ([3]; 40 uM): 0.9526
O=C(O)c1cc(N=Cc2c(O)c3ccccc3oc2=O)ccc1O [MLS001216260-01]	1.005	0.9893	1.16	1.06	0.9144	0.9348	1.0145	0.984	0.8531	0.8798	0.8781	0.8933	0.8516	1.031	1.09	0.8367	–
COc1ccccc1NC(=O)CCCc1c[nH]c2ccccc12 [MLS000334464-01]	–	–	–	–	–	–	–	–	–	–	–	–	–	–	–	–	fold induction at 0.5 µM ([1]; 0.5 uM): 0.986; fold induction at 1 µM ([1]; 1 uM): 0.88; fold induction at 5 µM ([1]; 5 uM): 1; fold induction at 10 µM ([1]; 10 uM): 0.992; fold induction at 20 µM ([1]; 20 uM): 1.13; fold induction at 40 µM ([1]; 40 uM): 0.666; fold induction at 0.5 µM ([2]; 0.5 uM): 1.13; fold induction at 1 µM ([2]; 1 uM): 1.11; fold induction at 5 µM ([2]; 5 uM): 1.18; fold induction at 10 µM ([2]; 10 uM): 1.14; fold induction at 20 µM ([2]; 20 uM): 0.896; fold induction at 40 µM ([2]; 40 uM): 1.08; fold induction at 5 µM [3]: 1.3; fold induction at 10 µM [3]: 1.08; fold induction at 20 µM [3]: 0.988; fold induction at 40 µM [3]: 0.964
Cc1ccc(S(=O)(=O)N2CN(CC3CCCO3)c3nc4ccccc4nc32)c(C)c1 (stereo not shown) [MLS001139288-01]	0.9234	0.8525	0.9829	0.9777	1.313	0.7808	0.9823	0.9709	0.8634	0.9225	1.085	0.9336	1.247	1.047	1.096	1.0825	–
